Consider 6 molecules from PubChem BioAssay AID1259407 (Chemical Carcinogenesis Research Information System (CCRIS), 2018).

Structures are written as SMILES. Calls of active or inactive are those of the source. How the calls were made is not given here.

For this series, the system named is CCRIS mutagenicity, Ames/micronucleus/aberration tests. Put plainly: CCRIS mutagenicity studies.
The mark [1] stands for this setting: Test System: AMES SALMONELLA TYPHIMURIUM, Strain/Indicator: TA98, Metabolic Activation: NONE, Method: PREINCUBATION
Where [2] appears, read: Test System: AMES SALMONELLA TYPHIMURIUM, Strain/Indicator: TA100, Metabolic Activation: NONE, Method: PREINCUBATION
Setting [3] is: Test System: AMES SALMONELLA TYPHIMURIUM, Strain/Indicator: TA1535, Metabolic Activation: NONE, Method: PREINCUBATION
[4] abbreviates: Test System: AMES SALMONELLA TYPHIMURIUM, Strain/Indicator: TA1537, Metabolic Activation: NONE, Method: PREINCUBATION

Take `C=C(C)C(=O)OCCCCCCCCCC`: the mutagenic call runs as follows: (Test System: AMES SALMONELLA TYPHIMURIUM, Strain/Indicator: TA98, Metabolic Activation: HAMSTER, LIVER, S-9, AROCLOR 1254 (10%), Method: PREINCUBATION) “inactive; negative”; under setting [1], “inactive; negative”; (Test System: AMES SALMONELLA TYPHIMURIUM, Strain/Indicator: TA98, Metabolic Activation: RAT, LIVER, S-9, AROCLOR 1254 (10%), Method: PREINCUBATION) “inactive; negative”; (Test System: AMES SALMONELLA TYPHIMURIUM, Strain/Indicator: TA100, Metabolic Activation: HAMSTER, LIVER, S-9, AROCLOR 1254 (10%), Method: PREINCUBATION) “inactive; negative”; under setting [2], “inactive; negative”; (Test System: AMES SALMONELLA TYPHIMURIUM, Strain/Indicator: TA100, Metabolic Activation: RAT, LIVER, S-9, AROCLOR 1254 (10%), Method: PREINCUBATION) “inactive; negative”. Further, the mutagenic call was “inactive; negative” (Test System: AMES SALMONELLA TYPHIMURIUM, Strain/Indicator: TA1535, Metabolic Activation: HAMSTER, LIVER, S-9, AROCLOR 1254 (10%), Method: PREINCUBATION); “inactive; negative” under setting [3]; “inactive; negative” (Test System: AMES SALMONELLA TYPHIMURIUM, Strain/Indicator: TA1535, Metabolic Activation: RAT, LIVER, S-9, AROCLOR 1254 (10%), Method: PREINCUBATION); “inactive; negative” (Test System: AMES SALMONELLA TYPHIMURIUM, Strain/Indicator: TA1537, Metabolic Activation: HAMSTER, LIVER, S-9, AROCLOR 1254 (10%), Method: PREINCUBATION); “inactive; negative” under setting [4]; “inactive; negative” (Test System: AMES SALMONELLA TYPHIMURIUM, Strain/Indicator: TA1537, Metabolic Activation: RAT, LIVER, S-9, AROCLOR 1254 (10%), Method: PREINCUBATION).
On to `CC(=O)c1cc(N)ccc1OCC(O)CNC(C)(C)C` (centres undefined), for which the mutagenic call is “inactive; negative” under setting [1]; “inactive; negative” (Test System: AMES SALMONELLA TYPHIMURIUM, Strain/Indicator: TA98, Metabolic Activation: RAT, LIVER, S-9, PHENOBARBITAL AND 5,6-BENZOFLAVONE (10 OR 50 µL/PLATE), Method: PREINCUBATION); “inactive; negative” under setting [2]; “inactive; negative” (Test System: AMES SALMONELLA TYPHIMURIUM, Strain/Indicator: TA100, Metabolic Activation: RAT, LIVER, S-9, PHENOBARBITAL AND 5,6-BENZOFLAVONE (10 OR 50 µL/PLATE), Method: PREINCUBATION); “inactive; negative” under setting [3]; “inactive; negative” (Test System: AMES SALMONELLA TYPHIMURIUM, Strain/Indicator: TA1535, Metabolic Activation: RAT, LIVER, S-9, PHENOBARBITAL AND 5,6-BENZOFLAVONE (10 OR 50 µL/PLATE), Method: PREINCUBATION). The mutagenic call is, setting by setting: under setting [4], “inactive; negative”; (Test System: AMES SALMONELLA TYPHIMURIUM, Strain/Indicator: TA1537, Metabolic Activation: RAT, LIVER, S-9, PHENOBARBITAL AND 5,6-BENZOFLAVONE (10 OR 50 µL/PLATE), Method: PREINCUBATION) “inactive; negative”; (Test System: E. COLI, Strain/Indicator: WP2 UVRA, Metabolic Activation: NONE, Method: PREINCUBATION) “inactive; negative”; (Test System: E. COLI, Strain/Indicator: WP2 UVRA, Metabolic Activation: RAT, LIVER, S-9, PHENOBARBITAL AND 5,6-BENZOFLAVONE, Method: PREINCUBATION) “inactive; negative”.
For the molecule `C=CC1=C(C)C(=O)N/C1=C\c1[nH]c(Cc2[nH]c(/C=C3\NC(=O)C(C)=C3C=C)c(C)c2CCC(=O)NCCS(=O)(=O)O)c(CCC(=O)NCCS(=O)(=O)O)c1C`, the mutagenic call (Test System: Ames Salmonella typhimurium, Strain/Indicator: TA98, Metabolic Activation: Liver, S-9, Method: Preincubation) is “inactive; negative”; the mutagenic call (Test System: Ames Salmonella typhimurium, Strain/Indicator: TA98, Metabolic Activation: None, Method: Preincubation) was “inactive; negative”; the mutagenic call (Test System: Ames Salmonella typhimurium, Strain/Indicator: TA100, Metabolic Activation: Liver, S-9, Method: Preincubation) was “inactive; negative”; the mutagenic call (Test System: Ames Salmonella typhimurium, Strain/Indicator: TA100, Metabolic Activation: None, Method: Preincubation) was “inactive; negative”; the mutagenic call (Test System: Ames Salmonella typhimurium, Strain/Indicator: TA102, Metabolic Activation: Liver, S-9, Method: Preincubation) was “inactive; negative”; the mutagenic call (Test System: Ames Salmonella typhimurium, Strain/Indicator: TA102, Metabolic Activation: None, Method: Preincubation) was “inactive; negative”.
Regarding `CNc1nncc2ccccc12`, the mutagenic call by setting is: (Test System: AMES SALMONELLA TYPHIMURIUM, Strain/Indicator: TA100, Metabolic Activation: NONE, Method: STANDARD PLATE) “active; positive”; (Test System: AMES SALMONELLA TYPHIMURIUM, Strain/Indicator: TA100, Metabolic Activation: RAT, LIVER, S-9, PHENOBARBITAL, Method: STANDARD PLATE) “active; positive”; (Test System: UDS RAT HEPATOCYTES, Strain/Indicator: THY INCORP, Metabolic Activation: NONE, Method: AUTORADIOGRAPHY) “active; positive”; (Test System: UDS RODENT HEPATOCYTES, Strain/Indicator: THY INCORP (NON-S-PHASE), Metabolic Activation: HOST-MEDIATED, Method: IN VIVO-IN VITRO) “inactive; negative”.
Turning to `Cc1nc2c3c(ccc4ccc(O)cc43)ccc2n1C`, the mutagenic call (Test System: AMES SALMONELLA TYPHIMURIUM, Strain/Indicator: TA98, Metabolic Activation: RAT, LIVER, S-9, AROCLOR 1254, Method: STANDARD PLATE) was “active; positive”.
As to `C=CCn1cc2c3c(cccc31)[C@H]1C=C(CO)CN(C)[C@@H]1C2`, the mutagenic call (Test System: AMES SALMONELLA TYPHIMURIUM, Strain/Indicator: TA100, Metabolic Activation: RAT, LIVER, S-9, AROCLOR 1254, Method: STANDARD PLATE) was “active; positive”.
